In patent publication US10105357B2, “Indication of antibiotic drugs for preparation of cancer inhibition pharmaceutical composition” (LAUNX BIOMEDICAL CO., LTD., priority 2014, dated 2018):
Where two headings read alike, the source gives them in different places.

Tests used:
Type in all cases: cell-based, human
[1] = tested on: U-2OS; test: Cell viability analysis, osteosarcoma U-2OS; conditions: Homo sapiens, U2OS, 72 h, read-out: The results of antibiotic drug inhibiting cancer cell lines (cell viability analysis), U2OS
[2] = tested on: BCC (basal cell carcinoma); test: Cell viability analysis, skin cancer BCC; conditions: Homo sapiens, 72 h, read-out: The results of antibiotic drug inhibiting cancer cell lines (cell viability analysis), BCC
[3] = tested on: HepG2 (Hepatocellular Carcinoma); test: Cell viability analysis, hepatic cancer HepG2; conditions: Homo sapiens, HepG2, 72 h
[4] = tested on: C-33A (Cervical carcinoma); test: Cell viability analysis, cervical cancer C-33A; conditions: Homo sapiens, C-33-A, 72 h, read-out: The results of antibiotic drug inhibiting cancer cell lines (cell viability analysis), C-33A
[5] = tested on: TOV-21G; test: Cell viability analysis, ovarian cancer TOV-21G; conditions: Homo sapiens, TOV21G, 72 h, read-out: The results of antibiotic drug inhibiting cancer cell lines (cell viability analysis), TOV-21G
[6] = tested on: BxPC-3; test: Cell viability analysis, pancreatic cancer BxPC-3; conditions: Homo sapiens, BXPC-3, 72 h, read-out: The results of antibiotic drug inhibiting cancer cell lines (cell viability analysis), BxPC-3
[7] = tested on: LoVo (Colorectal Adenocarcinoma); test: Cell viability analysis, colon cancer LoVo; conditions: Homo sapiens, LoVo, 72 h
[8] = tested on: SAS (Tongue squamous cell carcinoma); test: Cell viability analysis, tongue cancer SAS; conditions: Homo sapiens, 72 h, read-out: The results of antibiotic drug inhibiting cancer cell lines (cell viability analysis), SAS
[9] = tested on: T24; test: Cell viability analysis, bladder cancer T24; conditions: Homo sapiens, T-24, 72 h, read-out: The results of antibiotic drug inhibiting cancer cell lines (cell viability analysis), T24
[10] = tested on: A549 (Lung Adenocarcinoma); test: Cell viability analysis, lung cancer A549; conditions: Homo sapiens, A549, 72 h
[11] = tested on: MDA-MB-231 (Mammary Gland, Adenocarcinoma); test: Cell viability analysis, breast cancer MDA-MB-231; conditions: Homo sapiens, MDA-MB-231, 72 h, read-out: The results of antibiotic drug inhibiting cancer cell lines (cell viability analysis), MDA-MB231
[12] = tested on: cancer cell lines; test: Cell viability analysis (WST-1) on cancer cell lines; conditions: drug 10 μM, 72 hours, WST-1; Table 3
[13] = tested on: HL-60 (Acute Promyelocytic Leukemia); test: Cell viability analysis, leukemia HL-60; conditions: Homo sapiens, HL-60, 72 h, read-out: cell viability (survival rate), HL-60, drug 10 μM, 72 hours, WST-1, OD450 nm
[14] = tested on: HI650 (Lung Adenocarcinoma); test: Cell viability analysis, lung cancer HI650; conditions: Homo sapiens, NCI-H1650, 72 h
[15] = tested on: MCF7 (Mammary Gland, Adenocarcinoma); test: Cell viability analysis, breast cancer MCF7; conditions: Homo sapiens, MCF7, 72 h
[16] = tested on: HeLa (Cervix Adenocarcinoma); test: Cell viability analysis, cervical cancer HeLa; conditions: Homo sapiens, HeLa, 72 h
[17] = tested on: TSGH-8301 (Urinary Bladder Carcinoma); test: Cell viability analysis, bladder cancer TSGH-8301; conditions: Homo sapiens, 72 h
[18] = tested on: 786-O (Renal adenocarcinoma); test: Cell viability analysis, renal cancer 786-O; conditions: Homo sapiens, 786-0, 72 h, read-out: The results of antibiotic drug inhibiting cancer cell lines (cell viability analysis), 786-O
[19] = tested on: AGS (Gastric Adenocarcinoma); test: Cell viability analysis, gastric cancer AGS; conditions: Homo sapiens, 72 h
[20] = tested on: AsPC-1; test: Cell viability analysis, pancreatic cancer AsPC-1; conditions: Homo sapiens, ASPC1, 72 h, read-out: The results of antibiotic drug inhibiting cancer cell lines (cell viability analysis), AsPC-1
[21] = tested on: MKN-45 (Gastric Adenocarcinoma); test: Cell viability analysis, gastric cancer MKN-45; conditions: Homo sapiens, MKN-45, 72 h
[22] = tested on: NIH: OVCAR-3; test: Cell viability analysis, ovarian cancer NIH: OVCAR-3; conditions: Homo sapiens, OVCAR-3, 72 h, read-out: The results of antibiotic drug inhibiting cancer cell lines (cell viability analysis), NIH-OVCAR-3
[23] = tested on: A375 (Amelanotic Melanoma); test: Cell viability analysis, skin cancer A375; conditions: Homo sapiens, A-375, 72 h
[24] = tested on: Hep3B (hepatocellular carcinoma); test: Cell viability analysis, hepatic cancer Hep3B; conditions: Homo sapiens, Hep3B, 72 h, read-out: The results of antibiotic drug inhibiting cancer cell lines (cell viability analysis), Hep3B
[25] = read-out: The results of antibiotic drug inhibiting cancer cell lines (cell viability analysis), HepG2, HepG2, repeated experiment
[26] = read-out: cell viability (survival rate), HepG2, drug 10 μM, 72 hours, WST-1, OD450 nm
[27] = read-out: The results of antibiotic drug inhibiting cancer cell lines (cell viability analysis), LoVo, repeated experiment
[28] = read-out: cell viability (survival rate), LoVo, drug 10 μM, 72 hours, WST-1, OD450 nm
[29] = read-out: The results of antibiotic drug inhibiting cancer cell lines (cell viability analysis), A549, A549, repeated experiment
[30] = read-out: cell viability (survival rate), A549, drug 10 μM, 72 hours, WST-1, OD450 nm
[31] = read-out: The results of antibiotic drug inhibiting cancer cell lines (cell viability analysis), H1650, H1650, repeated experiment
[32] = read-out: cell viability (survival rate), H1650, drug 10 μM, 72 hours, WST-1, OD450 nm
[33] = read-out: The results of antibiotic drug inhibiting cancer cell lines (cell viability analysis), MCF-7, MCF-7, repeated experiment
[34] = read-out: cell viability (survival rate), MCF7, drug 10 μM, 72 hours, WST-1, OD450 nm
[35] = read-out: The results of antibiotic drug inhibiting cancer cell lines (cell viability analysis), HeLa, repeated experiment
[36] = read-out: cell viability (survival rate), HeLa, drug 10 μM, 72 hours, WST-1, OD450 nm
[37] = read-out: The results of antibiotic drug inhibiting cancer cell lines (cell viability analysis), TSGH-8301, TSGH-8301, repeated experiment
[38] = read-out: cell viability (survival rate), TSGH, drug 10 μM, 72 hours, WST-1, OD450 nm
[39] = read-out: The results of antibiotic drug inhibiting cancer cell lines (cell viability analysis), AGS, repeated experiment
[40] = read-out: cell viability (survival rate), AGS, drug 10 μM, 72 hours, WST-1, OD450 nm
[41] = read-out: The results of antibiotic drug inhibiting cancer cell lines (cell viability analysis), MKN-45, MKN-45, repeated experiment
[42] = read-out: cell viability (survival rate), MKN-45, drug 10 μM, 72 hours, WST-1, OD450 nm
[43] = read-out: The results of antibiotic drug inhibiting cancer cell lines (cell viability analysis), A375, A375, repeated experiment
[44] = read-out: cell viability (survival rate), A375, drug 10 μM, 72 hours, WST-1, OD450 nm

N=C(N)c1ccc(OCCCCCOc2ccc(C(=N)N)cc2)cc1 [Pentamidine]
viability at 10 µM [1]: 43.9% | viability at 10 µM [2]: 45.8% | viability at 10 µM [3, 25]: 69.1% | viability at 10 µM [3, 26]: 76.4% | viability at 10 µM [4]: 65.7% | viability at 10 µM [5]: 82.9% | viability at 10 µM [6]: 55% | viability at 10 µM [7, 27]: 63.4% | viability at 10 µM [7, 28]: 74.4% | viability at 10 µM [8]: 50.9% | viability at 10 µM [9]: 123% | viability at 10 µM [10, 29]: 35.4% | viability at 10 µM [10, 30]: 51.8% | viability at 10 µM [11]: 79% | inhibition effect on different cancer cell lines [12]: significant inhibition effect | viability at 10 µM [13]: 57.8% | viability at 10 µM [14, 31]: 68.5% | viability at 10 µM [14, 32]: 65.8% | viability at 10 µM [15, 33]: 60.5% | viability at 10 µM [15, 34]: 68.5% | viability at 10 µM [16, 35]: 44.6% | viability at 10 µM [16, 36]: 55.9% | viability at 10 µM [17, 37]: 82.7% | viability at 10 µM [17, 38]: 59.3% | viability at 10 µM [18]: 67.3% | viability at 10 µM [19, 39]: 92.4% | viability at 10 µM [19, 40]: 50.6% | viability at 10 µM [20]: 66.2% | viability at 10 µM [21, 41]: 97.3% | viability at 10 µM [21, 42]: 86.3% | viability at 10 µM [22]: 90.9% | viability at 10 µM [23, 43]: 49.8% | viability at 10 µM [23, 44]: 38.2% | viability at 10 µM [24]: 72%

O=c1[nH]c(=O)n([C@H]2C[C@H](O)[C@@H](CO)O2)cc1C(F)(F)F [Trifluridine (Viroptic), Trifluridine]
viability at 10 µM [1]: 61.2% | viability at 10 µM [2]: 83.3% | viability at 10 µM [3, 25]: 85.6% | viability at 10 µM [3, 26]: 90.2% | viability at 10 µM [4]: 66.5% | viability at 10 µM [5]: 81.4% | viability at 10 µM [6]: 73.1% | viability at 10 µM [7, 27]: 62.5% | viability at 10 µM [7, 28]: 72.1% | viability at 10 µM [8]: 33.5% | viability at 10 µM [9]: 55.4% | viability at 10 µM [10, 29]: 61.6% | viability at 10 µM [10, 30]: 36.5% | viability at 10 µM [11]: 75.1% | inhibition effect on different cancer cell lines [12]: significant inhibition effect | viability at 10 µM [13]: 88.9% | viability at 10 µM [14, 31]: 78% | viability at 10 µM [14, 32]: 71% | viability at 10 µM [15, 33]: 79.6% | viability at 10 µM [15, 34]: 36.3% | viability at 10 µM [16, 35]: 86.9% | viability at 10 µM [16, 36]: 51.8% | viability at 10 µM [17, 37]: 86.4% | viability at 10 µM [17, 38]: 51.3% | viability at 10 µM [18]: 37.9% | viability at 10 µM [19, 39]: 83.2% | viability at 10 µM [19, 40]: 64.4% | viability at 10 µM [20]: 62.1% | viability at 10 µM [21, 41]: 89.5% | viability at 10 µM [21, 42]: 43.6% | viability at 10 µM [22]: 105% | viability at 10 µM [23, 43]: 59.4% | viability at 10 µM [23, 44]: 48.6% | viability at 10 µM [24]: 77.6%
